These results are taken from publication PMC4549746, “Zearalenone in the Intestinal Tissues of Immature Gilts Exposed per os to Mycotoxins” (Toxins, 2015).

The nature of data set [1]: ZEN concentrations and carryover factor in intestinal tissues and liver of pre-pubertal gilts exposed per os (HPLC). The following applies: gilts given ZEN 40 μg/kg BW daily per os, 42 days; detection limits 0.003 µg·g^−1 α-ZEL, 0.002 µg·g^−1 β-ZEL. In kind it is in vivo. As to the method: The animals were divided into an experimental group (E, n = 18) and a control group (C, n = 21). Group E animals were orally administered ZEN at 40 μg/kg BW. Group C pigs were fed a placebo. The animals were fed complete diets in a restricted feeding regimen (Table 1). The daily dose of ZEN (40 µg/kg BW) was administered to each animal individually, which corresponds to exposure to 957–1014 µg ZEN/kg of a complete diet, depending on daily feed intake. Zearalenone was biosynthesized, purified and standardized by the Department of Chemistry of the Poznań University of Life Sciences. The experiment covered a period of 42 days. The mycotoxin was administered per os daily, in gelatine capsules before the morning feeding. The ZEN dose was adjusted to the body weight of the experimental animals. The mycotoxin was administered in capsules to prevent problems associated with uneven feed intake. Mycotoxin samples were diluted in 300 μL of 96% ethyl alcohol (96% ethyl alcohol, SWW 2442-90, Polskie Odczynniki Chemiczne SA, Gliwice, Poland) to the required dose level (based on body weight). Final solutions were stored at room temperature for 12 h to evaporate the solvent. The animals were weighed every 7 days to update mycotoxin doses for each gilt. Three animals from the experimental group and the control group each were sacrificed on Days 1, 7, 14, 21, 28, 35 and 42 (a total of 6 gilts in each week of exposure), excluding day 1, when only 3 control group animals were scarified. Every week, tissue samples were collected from the porcine gastrointestinal tract (duodenum, first and middle sections, jejunum, ileum, cecum, ascending colon, transverse colon, descending colon, middle section, and the liver, left lobe). Tissue samples were collected from the whole intestinal cross-sections.
Post-mortem tissue samples were collected from the duodenum, jejunum, ileum, cecum, ascending colon, transverse colon, descending colon and the liver after rinsing with phosphate buffer. Pure tissues were stored at −80 °C until shredding and extraction.
Tissue samples (2 g) were homogenized with 9 cm^3 of methanol for 4 min; they were transferred to centrifuge tubes with a minimal amount of the sediment, and the remainder was combined with 5 cm^3 of methanol and repeatedly homogenized. The extracts were combined and centrifuged for 10 min. The supernatant was transferred to a graduated test tube; its volume was read from the scale, and it was evaporated under a stream of nitrogen at a temperature of 60 °C to 0.1–0.2 cm^3 of water. The evaporated product was combined with 2 cm^3 of deionized water, 2 cm^3 of 0.2 M sodium acetate and 500 µL of […] solution. After 16 h of incubation at 37 °C, the reaction was stopped by adding 0.5 cm^3 of acetonitrile. The mixture was quantitatively transferred to a centrifuge tube; it was combined with 10 cm^3 of deionized water and centrifuged for 10 min at 3500 rpm. The supernatant was applied to the Zearala-Test™ column at the rate of 1–2 drops per second. Mycotoxins were eluted from the column with 1.5 mL of methanol; the solvent was evaporated, and the residue was reconstituted with 1 mL of methanol for HPLC analysis.
The concentrations of ZEN and its derivatives were determined by HPLC with the use of the Waters 2695 Separations Module, Waters 2475 Multi λ Fluorescence Detector and Waters 2996 Array Detector. Excitation and emission wavelengths were 274 and 440 nm, respectively. The reverse-phase column was C-18 Nova Pak (3.9 × 150 mm), and the mobile phase was acetonitrile-water-methanol (46:46:8, v/v/v) at a flow rate of 0.5 mL·min^−1. The mycotoxins were quantified by measuring the […] of the peaks based on the relevant calibration curves (correlation coefficient of 0.9996 for ZEN, 0.9989 for α-ZEL and 0.9976 for β-ZEL). Detection limits were determined at 0.001 µg·g^−1 for ZEN, 0.003 µg·g^−1 for α-ZEL and 0.002 µg·g^−1 for β-ZEL. […]

Details of data set [2]: method as in PMID 15972077. The note with it: animal feed naturally contaminated with ZEN and α-ZEL; cited from earlier work.
The conditions of data set [3]: relative to parent compound ZEN; cited from earlier work.

Structures are written as SMILES. “Also recorded” adds a separate entry of the source.

For the compound `C[C@H]1CCC[C@@H](O)CCC/C=C/c2cc(O)cc(O)c2C(=O)O1` [β-ZEL, β-zearalenol], the “concentrations of ZEN metabolites in the digestive tract and the liver” value in data set [1] is listed as “below the sensitivity of the method”.
As to `C[C@H]1CCC[C@H](O)CCC/C=C/c2cc(O)cc(O)c2C(=O)O1` [α-ZEL, α-zearalenol], the “concentrations of ZEN metabolites in the digestive tract and the liver” value in data set [1] was “below the sensitivity of the method”. Besides, in data set [2], the “absorbed from the duodenum” value is recorded as 65%. The “estrogenic activity in comparison to ZEN” value in data set [3] is listed as “three-fold or even four-fold higher; also recorded: three- to four-fold higher”.
